Experimental data from patent US20120149708A1, “MODULATORS OF VIRAL TRANSCRIPTION, AND METHODS AND COMPOSITIONS THEREWITH” (George Mason University, priority 2010, published 2012).
Entries after “also recorded” stand apart in the source; their conditions may differ.

Key:
[1] = system: integrated HIV-1-Luc; test: Luciferase assay in TSA treated TZM-bl cells; type: cell-based; conditions: TSA and CR8#13 versus TSA alone
Protocol: Luciferase activity increased with TSA treatment and then decreased post-CR8#13 treatment.
(§1) To observe the effect of drug on heterochrmatin formation, the present inventor used a ChIP assay. Briefly, TZM-bl cells were treated with TSA (FIGS. 16 and 17), and then treated with CR8#13.

[2] = system: HIV-1 LTR; test: Luciferase assay of Tat-dependent HIV-1 LTR transcription in TZM-bl cells; type: cell-based; conditions: TZM-bl cells transfected with Tat, 50 nm, 48 hrs
Protocol: (§2) FIGS. 1 and 2 show screening results of CR8 derivatives on Tat-dependent transcription HIV-1 LTR. […] TZM-bl cells were transfected with 1 ug of Tat and treated the next day with DMSO, or the indicated CR8 derivative compounds at 50 nm. 48 hrs-post drug treatment, luciferase activity of the firefly luciferase was measured with the BrightGlo Luciferase Assay and luminescence was read from a 96 well plate on an EG&G Berthold luminometer. Assays were performed in triplicate, average and standard deviations are shown.
TZM-bl cells were transfected with pc-Tat (0.5 μg) using Attractene reagent (Qiagen) according to the manufacturers' instructions. Twenty-four hours later, cells were treated with DMSO or the indicated compound. Forty-eight hours-post drug treatment, luciferase activity of the firefly luciferase was measured with the BrightGlo Luciferase Assay (Promega).
These cells were brought into contact with 18 Formula I compounds.
Briefly, the addition of Tat protein enables activated transcription of HIV-1 promoter driving luciferase in these cells. Treated cells were assayed at 48 hrs after Tat transfection and drug treatment.

[3] = system: 3′TAR and 5′TAR microRNA; test: Poly-A RT-PCR of TAR microRNA in TZM-bl cells with or without TSA; type: cell-based, HIV-1; conditions: for 3′ TAR microRNA amount: non-TSA treated TZM-bl cells, Flavopiridol 50 nm, CR8 100 nm, CR8#13 100 nm
Protocol: RNA was extracted 48 hrs-post drug treatment. 500 ng of RNA from the microRNA-enriched fraction was used to generate cDNA using the Quantimir kit (SBI) in order to poly adenylate small RNA species. RT reactions were performed followed by PCR in which a universal reverse primer was provided by the manufacturer. Specific microRNA forward primers are identical in sequence to the microRNA of interest. PCR products corresponding to the amplified microRNAs were separated in a 3.5% (w/v) agarose gel. The PCR products are at around 67 bp as compared with the Fermentas 1 kb DNA Plus Ladder. Increased levels of 3′TAR microRNA were produced post CR8#13 treatment.
For poly-A RT-PCR detection of microRNAs, 500 ng of RNA from the microRNA-enriched fraction was used to generate cDNA using the Quantimir kit (SBI) according to the manufacturer's protocol. Briefly, small RNA species are poly-adenylated and then reverse transcription reactions are performed with a company-provided RT primer. For PCR, a universal reverse primer is provided by the manufacturer. Specific microRNA forward primers are identical in sequence to the microRNA of interest. PCR products corresponding to the amplified microRNAs were separated in a 3.5% (w/v) agarose gel and quantified using the Kodak 1D software.
To determine whether the cdk inhibitors Flavopiridol, CR8, and CR8#13 increased levels of TAR microRNA in the TSA-treated and control TZM-bl cells total RNA was extracted from both TSA treated and control cells treated with Flavopiridol, CR8, and CR8#13 and processed for RT-PCR detection of microRNAs, specifically, for the presence of 3′TAR and 5′TAR molecules.

[4] = system: TAR microRNA; test: RNase protection assay for TAR and TAR miRNA in TNF treated ACH2 cells; type: cell-based, HIV-1; conditions: CR8#13 50 nm compared to Flavopiridol 50 nm, 48 hrs
Excerpt: Ten micrograms of total RNA from TNF treated CEM (lane 1) and TNF treated ACH2 cells (lanes 2-6) were hybridized to a radiolabeled TAR 5′ probe and then treated with RNase A. Arrows indicate the probe protected by TAR at 27 nucleotides and the probe protected by a TAR miRNA at approximately 22 nt. Cyc202 concentration at 500 nm, CR8 at 100 nm, CR8#13 at 50 nm, and Flavopiridol at 50 nm were used for these experiments.
Total RNA was extracted from TNF-treated CEM and ACH2 cells follow by drug treatment with Cyc202 (500 nm), CR8 ([…]), CR8#13 (50 nm), and Flavopiridol (50 nm) for 48 hrs using Trizol reagent (Invitrogen). RNase protection assays were performed as previously described (Klase et al, 2007).
RNA polymerase II associated with HIV-1 promoter, however, is phosphorylated on both Ser2 and 5 in the presence of Tat (see Zhou et al, 2004). In order to ascertain whether or not cells treated with CDK inhibitors according to the present invention produce additional TAR derived miRNA, the inevntor utilized RNase protection assays to detect small RNA fragments corresponding to the TAR sequence.
Briefly, a probe complementary to the entire length of the 5′ portion of the TAR stem loop was designed, which would detect the generation of ˜21 nt RNAs from any position within that sequence. […]

[5] = system: HIV-1 LTR; test: ChIP assay on HIV-1 LTR in TSA treated TZM-bl cells; type: cell-based; conditions: TZM-bl after TSA treatment
Protocol: Primers specific for the HIV-1 LTR were used to amplify DNA that was precipitated with each antibody. Lane 1 indicates basal levels of repressive markers on the HIV-1 LTR.
TZM-bl cells were treated with TSA for 7 days and processed for ChIP. For ChIP, approximately 5×10^6 cells were used per IP. ChIP assays were performed as previously described. PCR was performed using 0.1 μM of HIV-1 LTR primers (Klase et al, 2007; Guendel et al, 2009; Easley et al, 2010).
as §1

[6] = system: uninfected CEM, Jurkat T-cells, and U937 cells; test: MTT assay, uninfected cells; type: cell-based
Protocol: as §2
(§3) Quantitative MTT assays were performed (FIG. 2), to further validate the cell growth inhibitory activity of certain Formula I compounds. In this study, cultured, infected ACH2, J1.1, OM10.1, U1 and uninfected CEM, Jurkat T-cells, and U937 cells were brought in contact with Formula I compounds CR8, MRT-033, and BJFP1154 (CR8#13). Cell growth inhibition study was performed at two different concentrations of the inventive compounds, a low concentration of 50 nm, and high concentration of 10 μM.

[7] = system: HIV-1; test: Viral inhibition (HIV-1); type: cell-based; conditions: versus Cyc202
[8] = system: infected ACH2, J1.1, OM10.1, U1 cells; test: MTT assay, infected cells; type: cell-based; conditions: 50 nm and 10 μM
Protocol: as §2, §3

Row | Compound | Luciferase activity [1] | inhibition of HIV-1 LTR transcription (luciferase) [2] | 3′ TAR microRNA amount [3] | levels of TAR and miTAR RNA (RPA) [4] | recruitment of HDAC1, Ago2, Suv39H1 to the HIV-1 promoter (ChIP) [5] | death of uninfected cells (MTT) ([6]; high concentration of 10 μM) | 3′ and 5′ TAR microRNA amount ([3]; TZM-bl cells treated with TSA for 7 days, then drug) | potency relative to Cyc202 (viral inhibition) [7] | cell inhibition of uninfected cells (MTT) ([6]; 50 nm and 10 μM) | cell killing of infected cells (MTT) [8]
1 | CC(C)c1cnn2c(NCc3ccc(-c4ccccn4)cc3)nc(NC[C@H](O)CO)nc12.O=C(O)/C=C/C(=O)O [BJFP1154] | decrease Luciferase activity | greatest transcriptional inhibition; also recorded: significant inhibition of HIV-1 transcription | significantly increased amount of the 3′ TAR microRNA | Higher levels of TAR and miTAR RNA | re-recruitment of heterochromatin markers | marginal, if any death of uninfected cells |  |  |  | 
2 | CC[C@@H](CO)Nc1nc(NCc2ccc(-c3ccccn3)cc2)c2ncn(C(C)C)c2n1 [CR8] |  |  | significantly increased amount of the 3′ TAR microRNA |  |  |  | higher amounts of both 3′ and 5′ TAR microRNA | roughly 25 times | some cell inhibition activity of uninfected cells | significant cell killing of infected cells over uninfected cells
